According to patent US10557115B2, “Medium containing uridine and N-acetyl-D-mannosamine” (JCR Pharmaceuticals Co., Ltd., priority 2015, dated 2020):

How the values were obtained:
[1] = tested on: CHO cells for expression of recombinant human FSH; assay: Sialic acid content (HPLC peak area) of recombinant human FSH from cells cultured in supplemented medium; assay type: cell-based, Chinese hamster; conditions: for relative value of sialic acid peak area of recombinant human FSH (basic medium = 100%): basic medium added with 8 mM N-acetyl-D-mannosamine and/or 3 mM uridine, 5 days at 37° C., FIG. 9
Procedure: (§1) The above master cells stored in liquid nitrogen were quickly thawed in 37° C. thermostatic bath, and suspended in a basic medium, the CD Opti CHO™ medium (Life Technologies Inc.) supplemented with 2 mM of GlutaMAX (Life Technologies Inc.) and 1×HT Supplement (Life Technologies Inc.). Then, the cells were precipitated by centrifugation and corrected. The corrected cells were suspended with the basic medium to obtain cell suspension, and the number of the living cells was counted. The cell suspension was diluted to the living cell density of 2×10^5 cells/mL with the basic medium.
The cell suspension was dispensed into culture vessels by 120 mL each to generate four groups and incubated for five days at 37° C. under 5% CO2. This incubation was conducted by using Bio Jr. 8 (100 mL×8 vessels culture device, AbleBiott Inc.), and pH of the medium was kept at 6.9 and the dissolved oxygen level (DO) was kept at 40% during the incubation. […]
50 μL of the concentrated solution of the purified recombinant human FSH of each of the groups was alkali-treated with 0.3M sodium hydroxide at 37° C. for 30 minutes, subsequently was acid-treated with 0.05M hydrochloric acid at 80° C. for 60 minutes to make glycans composing recombinant human FSH hydrolyzed to monosaccharides. Then, the solution were added with fluorescence reagent (a solution containing 9.6 mM of 1,2-diamino-4,5-methylene-dioxybenzene dihydrochloride, 24 mM of sodium hydrosulfite, and 1M of 2-mercaptoethanol), and heated at 50° C. for 150 minutes to fluorescently label the monosaccharides obtained by the hydrolysis. […] As a standard, sialic acid was concurrently treated with the same manner, and the standard of fluorescence-labeled sialic acid was obtained. The standard thus obtained was analyzed by HPLC using COSMOSIL 5C18-PAQ as reverse phase column, and the elution time of sialic acid, the time when the peak corresponding to sialic acid appeared, was measured. And each of the sample solutions was analyzed by HPLC and the area of peak corresponding to sialic acid was calculated. […]

[2] = tested on: CHO cells for expression of recombinant human erythropoietin; assay: Capillary electrophoresis isoform analysis of recombinant human erythropoietin from cells cultured in supplemented medium; assay type: cell-based, Chinese hamster; conditions: basic medium added with 8 mM N-acetyl-D-mannosamine and/or 3 mM uridine, 5 days at 37° C., FIG. 3; for ratio of type I isoform to sum of all detected isoforms of recombinant human erythropoietin: type I = lowest isoelectric point
Procedure: as §1, with “obtain the” for “obtain”
The cell suspension was dispensed into culture vessels by 120 mL each to generate four groups and incubated for five days at 37° C. under 5% CO2. This incubation was conducted by using Bio Jr.8 (100 mL×8 vessels culture device, AbleBiott Inc.), and pH of the medium was kept at 6.9 and the dissolved oxygen level (DO) was kept at 40% during the incubation. At this time, uridine and N-acetyl-D-mannosamine were added at the concentration as shown in Table 1 to each of the groups (group 1 to group 4). The incubation was conducted four times for each of the groups.
On the fifth day of the incubation above, 10 mL of each of the cultures was corrected to centrifuging tubes and centrifuged at 3,000 rpm for 10 minutes. Then, the culture supernatants were corrected and diluted 1.5 times with purified water. Then, 7.5 mL of each of these diluted culture supernatants was loaded on Capto™ adhere column, a multi-modal anion exchange resin (column volume: 1 mL, GE Healthcare Bioscience Inc.) pre-equilibrated with 20 mM Tris buffer (pH 7.5). After washing the column with 5 column volumes of 20 mM Tris buffer (pH 7.5), recombinant human erythropoietin adsorbed by the resin was eluted with 20 mM Tris buffer (pH 7.5) containing 200 mM of NaCl to obtain eluted fractions. And the eluted fractions were concentrated by Amicon Ultra-4 Centrifugal Filter Units (molecular weight cut off: 3 kDa, Millipore Inc.) to 100 μL of volume.
The concentrated solution of each of the groups was subjected capillary electrophoresis by using Bare Fused-Silica Capillary (50 μm ID, 375 μm OD, 50 cm length, Beckmann Coulter Inc.) attached to capillary electrophoresis system (P/ACE™ system MDQ, Beckmann Coulter Inc.). In doing this, 10 mM Tris buffer (pH 4.5) containing 10 mM of sodium chloride, 500 mM of sodium acetate, 7 M of urea, and 2.5 mM of putrescine was used as an electrophoresis buffer, and the electrophoresis was performed at constant current of 24 μA for 50 minutes. Further the wave length at 214 nm was monitored by an UV detector to detect the recombinant human erythropoietin subjected to the electrophoresis.
The isoform showing the lowest isoelectric point among the isoforms showing different isoelectric points when detected by the capillary electrophoresis above was named as type I, and further the isoforms were named as type II and type III in ascending order of isoelectric point. The ratios of type I, type II, and type III to sum of all of detected isoforms were calculated, respectively. And the ratios were compared between the groups. The ratios of type I, type II, and type III in the recombinant human erythropoietin of the group 1 obtained by culturing the cells in the basic medium were about 0.7%, about 5%, and about 15%, respectively (FIG. 3).

SMILES | relative value of sialic acid peak area of recombinant human FSH (basic medium = 100%) [1] | ratio of type II isoform to sum of all detected isoforms of recombinant human erythropoietin [2] | ratio of type III isoform to sum of all detected isoforms of recombinant human erythropoietin [2] | ratio of type I isoform to sum of all detected isoforms of recombinant human erythropoietin [2] | increase of average number of sialic acid molecules per molecule of recombinant human FSH versus basic medium ([1]; basic medium added with 3 mM uridine, or with 8 mM N-acetyl-D-mannosamine and 3 mM uridine)
CC(=O)N[C@@H]1C(O)O[C@H](CO)[C@@H](O)[C@@H]1O (stereo partly drawn) [N-acetyl-D-mannosamine] | about 100% | about 7% | about 20.7% | about 1.2% | 
O=c1ccn([C@@H]2O[C@H](CO)[C@@H](O)[C@H]2O)c(=O)[nH]1 [uridine] | about 112% | about 3.5% | about 13% | about 0.3% | about 10%
